PMC12207590, “Substrate Specificity of the Organic Cation Transporters MATE1 and MATE2K and Functional Overlap with OCT1 and OCT2” (Journal of Medicinal Chemistry, 2025)
Like-named read-outs stand apart in the source and are kept apart here.

Key:
MATE1 = molecular target: T1, MATE1 (Homo sapiens, UniProt Q96FL8); experiment: Uptake ratio in MATE1-overexpressing HEK293 cells vs empty vector (2.5 μM, 1 min, HPLC-MS/MS); assay type: cell-based
T1 sequence (Q96FL8 1-570): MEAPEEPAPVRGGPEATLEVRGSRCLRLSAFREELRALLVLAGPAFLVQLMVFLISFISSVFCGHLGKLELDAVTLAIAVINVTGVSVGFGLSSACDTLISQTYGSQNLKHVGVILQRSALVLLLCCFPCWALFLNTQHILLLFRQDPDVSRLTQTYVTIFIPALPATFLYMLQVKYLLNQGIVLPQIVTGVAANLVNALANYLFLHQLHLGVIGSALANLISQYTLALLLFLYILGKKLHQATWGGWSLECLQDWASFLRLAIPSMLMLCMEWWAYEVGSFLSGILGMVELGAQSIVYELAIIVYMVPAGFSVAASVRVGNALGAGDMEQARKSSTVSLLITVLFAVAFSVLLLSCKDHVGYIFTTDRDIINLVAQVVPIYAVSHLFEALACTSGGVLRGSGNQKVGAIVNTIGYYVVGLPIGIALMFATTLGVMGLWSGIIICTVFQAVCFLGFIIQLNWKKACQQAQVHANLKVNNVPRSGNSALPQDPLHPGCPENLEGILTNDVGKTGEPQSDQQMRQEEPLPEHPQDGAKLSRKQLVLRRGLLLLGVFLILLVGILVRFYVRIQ

MATE2K = MATE2K (Homo sapiens, UniProt Q86VL8); experiment: Uptake ratio in MATE2K-overexpressing HEK293 cells vs empty vector (2.5 μM, 1 min, HPLC-MS/MS); assay type: cell-based
[1] = fold uptake over empty vector, 2.5 μM, 1 min
[2] = uptake ratio MATE1-overexpressing vs empty-vector HEK293 cells, 2.5 μM, 1 min, mean
[3] = uptake ratio MATE2K-overexpressing vs empty-vector HEK293 cells, 2.5 μM, 1 min, mean
[4] = mean ratio of uptake in MATE1-overexpressing HEK293 cells vs empty vector, 2.5 μM, 1 min
[5] = mean ratio of uptake in MATE2K-overexpressing HEK293 cells vs empty vector, 2.5 μM, 1 min

MATE2K, sequence (Q86VL8 1-566 isoform Q86VL8-3): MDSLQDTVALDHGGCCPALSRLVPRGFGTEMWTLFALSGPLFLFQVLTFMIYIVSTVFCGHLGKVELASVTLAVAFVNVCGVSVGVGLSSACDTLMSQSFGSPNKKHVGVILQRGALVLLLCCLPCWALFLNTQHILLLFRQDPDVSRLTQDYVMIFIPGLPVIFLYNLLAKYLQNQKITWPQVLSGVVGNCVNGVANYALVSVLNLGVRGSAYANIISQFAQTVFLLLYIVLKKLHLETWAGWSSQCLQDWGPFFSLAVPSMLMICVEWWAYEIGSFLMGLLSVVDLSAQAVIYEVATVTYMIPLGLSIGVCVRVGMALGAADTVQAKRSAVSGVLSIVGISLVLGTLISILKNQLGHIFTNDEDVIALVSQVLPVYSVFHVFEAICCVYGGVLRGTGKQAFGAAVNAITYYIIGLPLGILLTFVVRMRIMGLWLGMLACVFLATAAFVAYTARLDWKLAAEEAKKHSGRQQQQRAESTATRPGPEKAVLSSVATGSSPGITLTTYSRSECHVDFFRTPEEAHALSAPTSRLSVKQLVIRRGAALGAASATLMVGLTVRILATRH

Row | SMILES | MATE1 ratio (MATE1) | MATE2K ratio (MATE2K) | MATE1 ratio (MATE1; [1]) | MATE2K ratio (MATE2K; [1]) | MATE1 (uptake ratio) (MATE1) | MATE2 (uptake ratio) (MATE2K) | further results
1 | NCc1ccc(O)cc1 | 1.48 | 1.09 |  |  |  |  | 
2 | COc1ccc2[nH]cc(C[C@H](N)C(=O)O)c2c1 |  |  | 0.89 | 1.10 |  |  | 
3 | OCCc1ccccc1 |  |  | 1.39 | 1.20 |  |  | 
4 | CNC[C@H](O)c1ccc(O)c(O)c1 (racemic) [Epinephrine (rac), Epinephrine] |  |  | 18.70 | 3.27 |  |  | 
5 | C[C@H](NCCc1ccc(O)cc1)[C@H](O)c1ccc(O)cc1 (racemic) [Ritodrine] |  |  | 8.03 | 2.23 |  |  | MATE1 (MATE1; [2]): 8.03; MATE2 (MATE2K; [3]): 2.23
6 | N[C@@H]1C[C@H]1c1ccccc1 (racemic) [Tranylcypromine] |  |  |  |  |  |  | MATE1 (MATE1): 1.45; MATE2 (MATE2K): 1.98
7 | CC(C)(C)NCC(O)COc1nsnc1N1CCOCC1 (stereo in doubt) [Timolol (R)] |  |  |  |  |  |  | MATE1 (MATE1; [2]): 0.94; MATE2 (MATE2K; [3]): 0.96
8 | Cc1ccc(O)c(C(CCN(C(C)C)C(C)C)c2ccccc2)c1 (stereo in doubt) [Tolterodine (S)] |  |  |  |  |  |  | MATE1 (MATE1): 1.16
9 | N=C(Nc1ccccc1)Nc1ccccc1 [1,3-Diphenylguanidine] | 1.53 | 1.27 |  |  | 1.53 | 1.27 | 
10 | N=C(N)NC(=N)Nc1ccc(Cl)cc1 [1-(4-Chlorophenyl)biguanide] | 6.97 | 3.82 |  |  | 6.97 | 3.82 | 
11 | C[n+]1ccc(-c2ccccc2)cc1 [1-Methyl-4-phenylpyridinium] | 23.35 | 9.05 |  |  | 23.35 | 9.05 | MATE1 ratio in this study (MATE1): 23.35; MATE2K ratio in this study (MATE2K): 9.05
12 | Cn1c(=O)[nH]c2nc[nH]c2c1=O [1-Methylxanthine] | 1.08 | 0.96 |  |  | 1.08 | 0.96 | 
13 | CCC(Cc1ccc2c(c1)OCO2)NC (stereo not shown) [2-Methylamino-1-(3,4-methylendioxyphenyl)butan] | 1.35 | 1.24 |  |  | 1.35 | 1.24 | 
14 | CCC(C)C(=O)OC(CC(=O)[O-])C[N+](C)(C)C (stereo not shown) [2-Methylbutyrylcarnitine] |  |  | 0.61 | 1.24 |  |  | MATE1 (uptake ratio) (MATE1; [4]): 0.61; MATE2 (uptake ratio) (MATE2K; [5]): 1.24
15 | NCCc1ccccc1 [2-Phenylethylamine] |  |  | 1.39 | 1.43 |  |  | MATE1 (uptake ratio) (MATE1; [4]): 1.39; MATE2 (uptake ratio) (MATE2K; [5]): 1.43
16 | COc1cc(CCN)ccc1O [3-Methoxy-p-tyramine] | 4.05 | 1.39 |  |  | 4.05 | 1.39 | 
17 | N=C(N)N1Cc2ccccc2C(O)C1 (stereo not shown) [4-Hydroxydebrisoquine] |  |  | 9.59 | 3.34 |  |  | MATE1 (uptake ratio) (MATE1; [4]): 9.59; MATE2 (uptake ratio) (MATE2K; [5]): 3.34
18 | Cc1cc(O)cc(C)c1OCC(C)N (stereo not shown) [4-Hydroxymexiletine] |  |  | 1.67 | 1.42 |  |  | MATE1 (uptake ratio) (MATE1; [4]): 1.67; MATE2 (uptake ratio) (MATE2K; [5]): 1.42
19 | COc1ccc(CCN)cc1O [4-Methoxy-m-tyramine] | 3.09 | 1.19 |  |  | 3.09 | 1.19 | 
20 | COc1ccc(CCN)cc1 [4-Methoxyphenethylamine] | 1.40 | 1.23 |  |  | 1.4 | 1.23 | 
21 | NCCc1c[nH]c2c(O)cc(O)cc12 [5,7-Dihydroxytryptamine] | 1.13 | 0.84 |  |  | 1.13 | 0.84 | 
22 | Nc1ccc2[nH]ncc2c1 [5-Aminoindazole] |  |  | 0.99 | 0.73 |  |  | MATE1 (uptake ratio) (MATE1; [4]): 0.99; MATE2 (uptake ratio) (MATE2K; [5]): 0.73
23 | NCCc1cc(O)c(O)cc1O [6-Hydroxydopamine] | 1.05 | 1.24 |  |  | 1.05 | 1.24 | 
24 | Oc1ccc2c3c1O[C@H]1[C@H](O)CC[C@@]4(O)[C@@H](C2)N(CC2CC2)CC[C@]314 [6-beta-Naltrexol] | 1.20 | 1.20 |  |  | 1.2 | 1.2 | 

Row | SMILES | MATE1 ratio (MATE1) | MATE2K ratio (MATE2K) | MATE1 ratio (MATE1; [1]) | MATE2K ratio (MATE2K; [1]) | MATE1 (uptake ratio) (MATE1) | MATE2 (uptake ratio) (MATE2K) | further results
25 | CNCC/C=C1/c2ccccc2CC(O)c2ccccc21 (stereo not shown) [10-OH-Nortriptyline] | 1.17 | 1.14 |  |  | 1.17 | 1.14 | 
26 | C[C@]12CCC(=O)C=C1CC[C@@H]1[C@@H]2CC[C@@]2(C)[C@H]1CC[C@]2(C)O [17-Alpha-methyltestosterone] | 1.17 | 1.22 |  |  | 1.17 | 1.22 | 
27 | N=C(N)NCCC[C@H](NC(=O)c1ccc2ccccc2c1O)C(=O)N1CCC[C@H]1C(N)=O [APC366] | 19.12 | 1.41 |  |  | 19.12 | 1.41 | 
28 | Nc1nc(NC2CC2)c2ncn([C@H]3C=C[C@@H](CO)C3)c2n1 [Abacavir] |  |  | 0.94 | 1.25 |  |  | MATE1 (uptake ratio) (MATE1; [4]): 0.94; MATE2 (uptake ratio) (MATE2K; [5]): 1.25
29 | CCN1CCN(Cc2ccc(Nc3ncc(F)c(-c4cc(F)c5nc(C)n(C(C)C)c5c4)n3)nc2)CC1 [Abemaciclib] |  |  | 1.06 | 1.01 |  |  | MATE1 (uptake ratio) (MATE1; [4]): 1.06; MATE2 (uptake ratio) (MATE2K; [5]): 1.01
30 | CCCS(=O)(=O)N[C@H]1C[C@@H](N(C)c2ncnc3[nH]ccc23)C1 [Abrocitinib] |  |  | 1.09 | 1.19 |  |  | MATE1 (uptake ratio) (MATE1; [4]): 1.09; MATE2 (uptake ratio) (MATE2K; [5]): 1.19
31 | CC(=O)OC1CN2CCC1CC2 (stereo not shown) [Aceclidine] | 1.26 | 1.08 |  |  | 1.26 | 1.08 | 
32 | O=C(O[C@H]1C[N+]2(CCCOc3ccccc3)CCC1CC2)C(O)(c1cccs1)c1cccs1 [Aclidinium (S), Aclidinium] |  |  | 5.36 | 1.64 |  |  | MATE1 (uptake ratio) (MATE1; [4]): 5.36; MATE2 (uptake ratio) (MATE2K; [5]): 1.64
33 | O=C(O[C@H]1C[N+]2(CCCOc3ccccc3)CCC1CC2)C(O)(c1cccs1)c1cccs1 [Aclidinium] |  |  | 4.73 | 1.17 |  |  | MATE1 (uptake ratio) (MATE1; [4]): 4.73; MATE2 (uptake ratio) (MATE2K; [5]): 1.17
34 | CCN1C[C@]2(COC)[C@H](O)C[C@H](OC)[C@@]34[C@@H]5C[C@@]6(O)[C@H](OC(=O)c7ccccc7)[C@@H]5[C@@](OC(C)=O)([C@@H]([C@H](OC)[C@H]23)[C@@H]14)[C@@H](O)[C@@H]6OC [Aconitine] | 1.13 | 1.32 |  |  | 1.13 | 1.32 | 
35 | NCCCCN=C(N)N [Agmatine] |  |  | 1.08 | 1.05 |  |  | MATE1 ratio in this study (MATE1; Table S1, 2.5 μM, 1 min): 1.08; MATE1 (uptake ratio) (MATE1; [4]): 1.08; MATE2K ratio in this study (MATE2K; Table S1, 2.5 μM, 1 min): 1.05; MATE2 (uptake ratio) (MATE2K; [5]): 1.05
36 | Oc1ncnc2[nH]ncc12 [Allopurinol] |  |  | 1.08 | 0.85 |  |  | MATE1 (uptake ratio) (MATE1; [4]): 1.08; MATE2 (uptake ratio) (MATE2K; [5]): 0.85
37 | CN(C)CCc1c[nH]c2ccc(CS(=O)(=O)N3CCCC3)cc12 [Almotriptan] |  |  | 4.40 | 2.36 |  |  | MATE1 (uptake ratio) (MATE1; [4]): 4.4; MATE2 (uptake ratio) (MATE2K; [5]): 2.36
38 | CC(N)[C@H](O)c1ccc(O)c(O)c1 (stereo partly drawn) [Alpha-methylnorepinephrine (-), Alpha-methylnorepinephrine] | 1.85 | 0.72 |  |  | 1.85 | 0.72 | 
39 | NC12CC3CC(CC(C3)C1)C2 [Amantadine] | 1.42 | 1.48 |  |  | 1.42 | 1.48 | 
40 | C#CCN(C)[C@H](C)Cc1ccccc1 [Selegiline (S), Selegiline] |  |  |  |  |  |  | MATE2 (MATE2K): 1.08
41 | CCN1CCC[C@H]1CNC(=O)c1cc(S(N)(=O)=O)ccc1OC [Sulpiride (S)] |  |  |  |  |  |  | MATE2 (MATE2K): 18.54
42 | CCOc1ccccc1OCCN[C@H](C)Cc1ccc(OC)c(S(N)(=O)=O)c1 [Tamsulosin] |  |  |  |  |  |  | MATE1 (MATE1; [2]): 1.4
43 | NCCS(=O)(=O)O [Taurine] |  |  |  |  |  |  | MATE2 (MATE2K; [3]): 1.2
44 | NC(=O)[C@@H]1CCCN1C(=O)[C@H](Cc1cnc[nH]1)NC(=O)[C@@H]1CCC(=O)N1 [Thyrotropin-Releasing-Hormon] |  |  |  |  |  |  | MATE1 (MATE1; [2]): 1.71
45 | Cc1ccc(O)c([C@H](CCN(C(C)C)C(C)C)c2ccccc2)c1 [Tolterodine (R)] |  |  |  |  |  |  | MATE2 (MATE2K): 1.06
46 | NCCNCCNCCN [Triethylentetramine] |  |  |  |  |  |  | MATE1 (MATE1; [2]): 0.65
47 | NCCc1c[nH]c2ccccc12 [Tryptamine] |  |  |  |  |  |  | MATE1 (MATE1): 2.21
48 | Cc1cc(C(C)(C)C)cc(C)c1CC1=NCCN1 [Xylometazoline] |  |  |  |  |  |  | MATE1 (MATE1): 1.55
